Measurements as given in PMC10400562, “Label-free measurement of antimicrobial peptide interactions with lipid vesicles and nanodiscs using microscale thermophoresis” (Scientific Reports, 2023).
Like-named read-outs stand apart in the source and are kept apart here. Non-standard residues stand in square brackets, D forms with d. Residues, ends and D or L forms follow the SMILES beside them.

Test: SPR, peptide binding to LUVs immobilized on L1 chip
Settings: for Kd: SPR steady state analysis, HEPES pH 7.4, room temperature, mean ± SD of triplicates; for koff PC/PG / koff PC: SPR, 10 mM HEPES pH 7.4 100 mM NaCl, room temperature, 400 s dissociation phase; for koff PC/PG: two-population fit averaged; for koff PC: two-population fit averaged (Figueira et al.); for SPR KP, DMPC: lipid/aqueous partition coefficient from SPR steady state (Figueira et al. method), DMPC LUVs; for SPR KP, DMPC / SPR KP, DMPC/PG: HEPES pH 7.4, ± SD of triplicate fits; for SPR KP, DMPC/PG: lipid/aqueous partition coefficient from SPR steady state, 95% DMPC 5% DMPG LUVs
Description: The interactions between AMPs 1–5 and LUVs were first investigated by SPR as a benchmark for the MST measurements. The data was acquired using the same lipid compositions as used in the MST data acquisition. LUVs were immobilized on an L1 chip, and an increasing concentration of AMPs was injected over them. […] The dissociation rate, koff, was calculated from the dissociation step, using the methodology presented by Figueira et al.[21], summarized in Table 2.
DMPC and DMPC:5% DMPG vesicles were prepared by solubilising a known weight of lipid in chloroform with a small amount of methanol to assist in the dissolution of the PG lipid head groups. The chloroform stock was dried in vacuo to produce a lipid film, which was further dried for additional 3 h. The lipid film was solubilised in 10 mM TRIS buffer (pH 7.4) containing 100 mM NaCl to yield a 20 mM milky lipid stock.
To produce the working vesicle stock, 1 mL of vesicle stock was extruded 20 times through a 0.1 µm filter using an Avanti Lipids mini-extruder. Vesicle size was confirmed using a Malvern Zetasizer Nano ZS (Malvern Panalytical Ltd, Malvern, United Kingdom).
The SPR measurements were performed using a T200 Biacore instrument (GE Healthcare, Oslo, Norway) at room temperature. An L1 chip was covered with extruded DMPC liposomes (1 mM in 10 mM HEPES buffer pH 7.4 with 100 mM NaCl) using a flowrate of 2 µL/min for 2400 s. Chip coverage was tested by injection of 0.1 mg/mL of bovine serum albumin for 1 min at 30 µL/min, with a change of < 400 RU indicating sufficient coverage.
The liposome surface was stabilized after each injection by three subsequent injections of 10 mM NaOH at 30 µL/min for 30 s each. Between experiments, the chip surface was cleaned by 20 mM CHAPS, 40 mM octyl-β-D-glucopyranoside and 30% ethanol in turn, with each solution injected for 1 min at 30 µL/min. The control flow cell was treated identically, with the exception that only the HEPES buffer solution was injected. The results were processed using in-house MATLAB scripts (MATLAB R2020a; scripts are available at https://github.com/MarJakubec).
KD was obtained from a steady state analysis using the intensities at the 190 s dissociation time, using Eq. (1):[21]1 Req=cRmax/KD+c+Roff where Req is the response at the steady state equilibrium, c is the peptide concentration, Rmax is the maximum response and Roff the response offset.
KP was obtained from same steady state affinity values using the method presented by Figuera et al., Eq. (2):[21]2 RUS/RUL=γLKPMS/MLSW/1+σγLKPSW where RUS and RUL are the relative responses of solute (peptides) and lipids respectively, γL is the molar volume of the lipids, MS and ML are the molecular mass of solute and lipid, respectively, and [S]W is the concentration of solute in water. KP and σ are obtained from fitting (with σ being lipid to solute ratio).
For koff evaluation we have used the formalism of Figuera et al.[21] for linearization of the dissociation process, where we have identified the contribution from two different populations in the dissociation response. Koff values were then obtained by Eq. (3) and averaged by Eq. (4):3 SL(t)=αe^-koff,α^t+βe^-koff,β^t+SL,r 4 koff=αkoff,α+βkoff,β/α+β where SL is the linearized ratio of solute and lipid, α and β are individual populations, and SL,r is the retained solute fraction.

[1] = 95% DMPC 5% DMPG LUVs on L1 chip, read-out: SPR KD, DMPC/PG
[2] = 95% DMPC 5% DMPG LUVs on L1 chip

**Q.** For N=C(N)NCCC[C@@H]1NC(=O)[C@H](CCCNC(=N)N)NC(=O)[C@H](Cc2c[nH]c3ccccc23)NC(=O)[C@H](Cc2c[nH]c3ccccc23)NC(=O)[C@H](Cc2c[nH]c3ccccc23)NC(=O)[C@H](CCCNC(=N)N)NC1=O [compound 1] (cyclo(WWWRRR)), which Kd [1] is on record?
**A.** Its Kd is 70 ± 1 µM.

**Q.** What about the Kd (DMPC LUVs on L1 chip) of the same compound?
**A.** The Kd was 142 ± 35 µM.

**Q.** What about the “koff PC/PG” value [2] of the same compound?
**A.** The value was 0.19 ± 0.01 s⁻¹.

**Q.** What about the “koff PC” value (DMPC LUVs on L1 chip) of the same compound?
**A.** Its value is 0.22 ± 0.02 s⁻¹.

**Q.** What about the “SPR KP, DMPC” value of the same compound?
**A.** The value was 6.65 ± 0.80 × 10^3.

**Q.** What about the “SPR KP, DMPC/PG” value of the same compound?
**A.** Its value is 12.71 ± 0.16 × 10^3.

**Q.** For N=C(N)NCCC[C@@H]1NC(=O)[C@H](Cc2c[nH]c3ccccc23)NC(=O)[C@H](CCCNC(=N)N)NC(=O)[C@H](Cc2c[nH]c3ccccc23)NC(=O)[C@H](CCCNC(=N)N)NC(=O)[C@H](Cc2c[nH]c3ccccc23)NC1=O [compound 2] (cyclo(WRWRWR)), which Kd [1] is on record?
**A.** The Kd was 105 ± 7 µM.

**Q.** What about the Kd (DMPC LUVs on L1 chip) of the same compound?
**A.** Its Kd is 318 ± 62 µM.

**Q.** And the “koff PC/PG” value [2]?
**A.** The value was 0.48 ± 0.05 s⁻¹.

**Q.** And the “koff PC” value (DMPC LUVs on L1 chip)?
**A.** Its value is 0.87 ± 0.19 s⁻¹.

**Q.** And the “SPR KP, DMPC” value?
**A.** The value was 1.30 ± 0.09 × 10^3.

**Q.** And the “SPR KP, DMPC/PG” value?
**A.** Its value is 3.16 ± 0.15 × 10^3.

**Q.** With NCCCC[C@@H]1NC(=O)[C@H](CCCCN)NC(=O)[C@H](Cc2c[nH]c3ccccc23)NC(=O)[C@H](Cc2c[nH]c3ccccc23)NC(=O)[C@H](Cc2c[nH]c3ccccc23)NC(=O)[C@H](CCCCN)NC1=O [compound 3] (cyclo(WWWKKK)) as the compound, how does the Kd [1] read?
**A.** Its Kd is 112 ± 15 µM.

**Q.** And the Kd (DMPC LUVs on L1 chip)?
**A.** The Kd was 302 ± 32 µM.

**Q.** And the “koff PC/PG” value [2]?
**A.** The value was 0.32 ± 0.05 s⁻¹.

**Q.** What about the “koff PC” value (DMPC LUVs on L1 chip) of the same compound?
**A.** Its value is 0.48 ± 0.07 s⁻¹.

**Q.** And the “SPR KP, DMPC” value?
**A.** The value was 2.53 ± 0.08 × 10^3.

**Q.** What about the “SPR KP, DMPC/PG” value of the same compound?
**A.** Its value is 5.16 ± 0.34 × 10^3.

**Q.** What does the source list for NCCCC[C@@H]1NC(=O)[C@H](Cc2c[nH]c3ccccc23)NC(=O)[C@H](CCCCN)NC(=O)[C@H](Cc2c[nH]c3ccccc23)NC(=O)[C@H](CCCCN)NC(=O)[C@H](Cc2c[nH]c3ccccc23)NC1=O [compound 4] (cyclo(WKWKWK))?
**A.** Kd [1]: 474 ± 45 µM; Kd (DMPC LUVs on L1 chip): 712 ± 27 µM; koff PC/PG [2]: 1.32 ± 0.05 s⁻¹; koff PC (DMPC LUVs on L1 chip): 0.90 ± 0.24 s⁻¹; SPR KP, DMPC: 0.53 ± 0.01 × 10^3; SPR KP, DMPC/PG: 0.63 ± 0.03 × 10^3

**Q.** Which results are given for CC(C)C[C@@H]1NC(=O)[C@@H](CCCNC(=N)N)NC(=O)[C@H](CCCCN)NC(=O)[C@H](CC(N)=O)NC(=O)[C@@H](Cc2c[nH]c3ccccc23)NC(=O)[C@H](Cc2c[nH]c3ccccc23)NC1=O [compound 5] (cyclo(LW[dW]NK[dR]))?
**A.** Kd [1]: 1030 ± 58 µM; Kd (DMPC LUVs on L1 chip): 2550 ± 493 µM; koff PC/PG [2]: 1.75 ± 0.16 s⁻¹; koff PC (DMPC LUVs on L1 chip): 1.76 ± 0.12 s⁻¹; SPR KP, DMPC: 0.28 ± 0.01 × 10^3; SPR KP, DMPC/PG: 0.40 ± 0.02 × 10^3
